Test results reported in ChEMBL document CHEMBL1201862, “PubChem BioAssay data set” (2004).
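The compound was tested at five concentrations on cells cultured in 96-well plates, with a 48-hour exposure period. At the GI50, growth is halved.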 Calls of active or inactive are those of the source. Cut-off read from the data, not from the text of the source: active = GI50 up to about 1.1 µM and inactive = higher.

What was measured:
Experiment in all cases: NCI anticancer screen, dose series, 48 h
SNB-75 = tested on: SNB-75
A498 = tested on: A498
A549 = tested on: A549
UO-31 = tested on: UO-31
SN12C = tested on: SN12C
MOLT-4 = tested on: MOLT-4
SK-OV-3 = tested on: SK-OV-3
SF-539 = tested on: SF-539
M14 = tested on: M14
OVCAR-4 = tested on: OVCAR-4
HOP-62 = tested on: HOP-62
EKVX = tested on: EKVX
U-251 = tested on: U-251
SK-MEL-5 = tested on: SK-MEL-5
SK-MEL-2 = tested on: SK-MEL-2
UACC-62 = tested on: UACC-62
UACC-257 = tested on: UACC-257
NCI/ADR-RES = tested on: NCI/ADR-RES
MCF7 = tested on: MCF7

Structure (SMILES) | GI50 (SNB-75) | GI50 (A498) | GI50 (A549) | GI50 (UO-31) | GI50 (SN12C) | GI50 (MOLT-4) | GI50 (SK-OV-3) | GI50 (SF-539) | GI50 (M14) | GI50 (OVCAR-4) | GI50 (HOP-62) | GI50 (EKVX) | GI50 (U-251) | GI50 (SK-MEL-5) | GI50 (SK-MEL-2) | GI50 (UACC-62) | GI50 (UACC-257) | GI50 (NCI/ADR-RES) | GI50 (MCF7)
CCOC(=O)NC1CC2CCC1(OC)C=C2C (stereo not given) | > 100 µM (inactive) | > 100 µM (inactive) | > 100 µM (inactive) | > 100 µM (inactive) | > 100 µM (inactive) | > 100 µM (inactive) | > 100 µM (inactive) | > 100 µM (inactive) | > 100 µM (inactive) | > 100 µM (inactive) | > 100 µM (inactive) | > 100 µM (inactive) | > 100 µM (inactive) | > 100 µM (inactive) | > 100 µM (inactive) | > 100 µM (inactive) | > 100 µM (inactive) |  | 
COc1cc([C@@H]2c3cc4c(cc3[C@@H](NC(=O)c3ccc(C(C)=O)cc3)C3COC(=O)[C@@H]32)OCO4)cc(OC)c1O (stereo not given in full) | 1.24 µM (inactive) | 1.66 µM (inactive) | 0.0311 µM (active) | 4.57 µM (inactive) | 0.275 µM (active) | < 0.01 µM (active) | 1.56 µM (inactive) | 0.316 µM (active) | 1.51 µM (inactive) | 27.3 µM (inactive) | 0.151 µM (active) | 1.89 µM (inactive) | 0.0743 µM (active) | 1.46 µM (inactive) | 2.82 µM (inactive) | 0.206 µM (active) | 3.88 µM (inactive) |  | 
COc1ccc(N2C(=O)[C@@H]3[C@@H]4CC(C)CC[C@@H]4c4c([nH]c5ccccc45)[C@@H]3C2=O)cc1 (stereo not given in full) | 2.82 µM (inactive) | 16.4 µM (inactive) | 17.3 µM (inactive) | 17 µM (inactive) | 11.2 µM (inactive) | 19.8 µM (inactive) | 7.98 µM (inactive) | 8.38 µM (inactive) | 26.4 µM (inactive) | 18 µM (inactive) | 12.6 µM (inactive) | 28.9 µM (inactive) | 11.4 µM (inactive) | 34 µM (inactive) | 8.79 µM (inactive) | 15.9 µM (inactive) | 53.8 µM (inactive) |  | 
CC1NC(=O)CC(c2ccccc2)N(N=O)C1c1ccccc1 (stereo not given) | 25.4 µM (inactive) | 8.89 µM (inactive) | 53.2 µM (inactive) | 50.8 µM (inactive) | 49.5 µM (inactive) | 31.4 µM (inactive) | 22.8 µM (inactive) | 23.4 µM (inactive) |  | 19.9 µM (inactive) | 28.8 µM (inactive) | > 70.6 µM (inactive) | 39.6 µM (inactive) | 28.6 µM (inactive) | 39.5 µM (inactive) | 35.4 µM (inactive) | 55.6 µM (inactive) | 25.2 µM (inactive) | 44.3 µM (inactive)
CN(/N=C/c1cccc2cccnc12)c1ccccc1 | 20.4 µM (inactive) | > 100 µM (inactive) | > 100 µM (inactive) | > 100 µM (inactive) | > 100 µM (inactive) | > 100 µM (inactive) | > 100 µM (inactive) | 37.2 µM (inactive) | > 100 µM (inactive) | 87.5 µM (inactive) | 76.2 µM (inactive) | > 100 µM (inactive) | > 100 µM (inactive) | > 100 µM (inactive) | 41.1 µM (inactive) | > 100 µM (inactive) | 52 µM (inactive) |  | 
ClCCCN(CCCCl)c1ccc(/C=N/c2cccc(Cl)c2)cc1 | 8.93 µM (inactive) |  | 10.2 µM (inactive) | 15.8 µM (inactive) | 10.4 µM (inactive) | 14.4 µM (inactive) | 49.5 µM (inactive) | 53.2 µM (inactive) | 29.3 µM (inactive) | 9.75 µM (inactive) | 18.7 µM (inactive) | 0.637 µM (active) | 26.9 µM (inactive) |  | 26.7 µM (inactive) | 1.49 µM (inactive) | 29.4 µM (inactive) | 11.2 µM (inactive) | 23.5 µM (inactive)
O=C(Nc1c(Cl)cc([N+](=O)[O-])cc1Cl)C(=O)C(C1OC(=O)c2ccccc21)[N+](=O)[O-] (stereo not given) | > 100 µM (inactive) | 31.6 µM (inactive) | > 100 µM (inactive) | 23.5 µM (inactive) | > 100 µM (inactive) | > 100 µM (inactive) | > 100 µM (inactive) | > 100 µM (inactive) | > 100 µM (inactive) | > 100 µM (inactive) | 81.8 µM (inactive) | 75.9 µM (inactive) | > 100 µM (inactive) | > 100 µM (inactive) | > 100 µM (inactive) | > 100 µM (inactive) | > 100 µM (inactive) |  | 
Cc1noc(/N=C2\C=C(Nc3onc(C)c3C)C(=O)c3ccccc32)c1C | 69.3 µM (inactive) | > 100 µM (inactive) | 87.1 µM (inactive) | 17.6 µM (inactive) | > 100 µM (inactive) | > 100 µM (inactive) | > 100 µM (inactive) | > 100 µM (inactive) | > 100 µM (inactive) | > 100 µM (inactive) | > 100 µM (inactive) | > 100 µM (inactive) | 46.1 µM (inactive) | 15.6 µM (inactive) | 48.1 µM (inactive) | 27.7 µM (inactive) | 36.7 µM (inactive) |  | 
O=C(CCC(=O)C1CCC/C1=N/O)Nc1ccc(Cl)cc1 (stereo not given) | 74.5 µM (inactive) | > 100 µM (inactive) | > 100 µM (inactive) | > 100 µM (inactive) | > 100 µM (inactive) | > 100 µM (inactive) | > 100 µM (inactive) | > 100 µM (inactive) | > 100 µM (inactive) | > 100 µM (inactive) | > 100 µM (inactive) | > 100 µM (inactive) | > 100 µM (inactive) | > 100 µM (inactive) | > 100 µM (inactive) | > 100 µM (inactive) | > 100 µM (inactive) |  | 
CN1Cc2c(nc(-c3ccccc3)c[n+]2[O-])N(C)C1 | > 100 µM (inactive) | > 100 µM (inactive) | > 100 µM (inactive) | > 100 µM (inactive) | > 100 µM (inactive) | > 100 µM (inactive) | > 100 µM (inactive) | > 100 µM (inactive) | > 100 µM (inactive) | > 100 µM (inactive) | > 100 µM (inactive) | > 100 µM (inactive) | > 100 µM (inactive) | > 100 µM (inactive) | > 100 µM (inactive) | > 100 µM (inactive) | > 100 µM (inactive) |  | 
CC(C)=CCCC(C)[C@H]1CC(O)C2(C)C3=CCC4C(C)(C)[C@@H](O)CC[C@]4(C)C3=CC[C@]12C (stereo not given in full) | 7.48 µM (inactive) | 3.98 µM (inactive) | 2.66 µM (inactive) | 14.3 µM (inactive) | 3.14 µM (inactive) | 15.2 µM (inactive) | 7.82 µM (inactive) | 2.09 µM (inactive) | 3.27 µM (inactive) | 2.31 µM (inactive) | 5.83 µM (inactive) | 26 µM (inactive) | 2.28 µM (inactive) | 14.3 µM (inactive) | 23.3 µM (inactive) | 4.23 µM (inactive) | 22.5 µM (inactive) |  | 
CC(=O)N/C=C/c1cc(O)ccc1O | 48.3 µM (inactive) | 51.3 µM (inactive) | > 61.8 µM (inactive) | 23.4 µM (inactive) | 29.9 µM (inactive) | 11.9 µM (inactive) | > 58.5 µM (inactive) | 35.5 µM (inactive) | 33.3 µM (inactive) | 32.6 µM (inactive) | > 41 µM (inactive) | 45.2 µM (inactive) | 37.2 µM (inactive) | 36.5 µM (inactive) | 34.9 µM (inactive) | 32.2 µM (inactive) | 31 µM (inactive) |  | 
